Test results reported in patent US4728736A, “Carbocyclic analogs of purine ribofuranosides” (priority 1984, dated 1988).
≈ marks a conversion by molar mass, not a printed value.

Tests used:
[1] = system: herpes simplex virus, type 1 (strain HF); test: Antiviral activity (virus rating); […]; format: cell-based; conditions: H.Ep. 2 cells; for EC50: Human alphaherpesvirus 1, HEp-2, strain HF, read-out: MIC50, Herpes Simplex Type 1; for Virus Rating (VR), Herpes Simplex Type 1: VR 0.5-0.9 marginal to moderate, VR >= 1 definite activity
[2] = system: herpes simplex virus, type 1 (strain 377); test: Antiviral activity (virus rating); […]; format: cell-based; conditions: strain 377, Vero cells; for EC50: Human alphaherpesvirus 1, 50% inhibition of virus-induced cytopathogenic effects, read-out: MIC50, Herpes Simplex Type 1; for Virus Rating (VR), Herpes Simplex Type 1: VR 0.5-0.9 marginal to moderate, VR >= 1 definite activity
[3] = system: vaccinia virus (Lederle Chorioallantoic strain); test: microbe, parasite or virus in culture; format: cell-based; conditions: for Virus Rating (VR), Vaccinia Virus: Lederle Chorioallantoic strain, H.Ep. 2 cells, VR 0.5-0.9 marginal to moderate, VR >= 1 definite activity; for EC50: Orthopoxvirus vaccinia, HEp-2, read-out: MIC50, Vaccinia Virus
[4] = system: herpes simplex virus, type 1, and vaccinia virus; format: cell-based, type 1; vaccinia virus; conditions: cell culture
[5] = 50% inhibition of virus-induced cytopathogenic effects

| Compound | EC50 [1, 5] [µg/mL] | Virus Rating (VR), Herpes Simplex Type 1 ([1]; strain HF) | MIC50, Herpes Simplex Type 1 ([1]; strain HF, 50% inhibition of virus-induced cytopathogenic effects) [µg/mL] | EC50 [2] [µg/mL] | Virus Rating (VR), Herpes Simplex Type 1 [2] | inhibiting replication of vaccinia virus (in words) [3] | Virus Rating (VR), Vaccinia Virus [3] | EC50 [3] [µg/mL] | antiviral activity (in words) [4] |
| --- | --- | --- | --- | --- | --- | --- | --- | --- | --- |
| Nc1ncnc2c1ncn2[C@@H]1O[C@H](CO)[C@@H](O)[C@@H]1O [Ara-A, reference compound] | 2.5 to 10 (≈ 9.35 to 37.4 µM) | 2.0-2.2 |  |  |  |  |  |  |  |
| Nc1nc(N)c2ncn([C@@H]3C[C@H](CO)[C@@H](O)[C@H]3O)c2n1 (relative stereo) [Example 2, (1α,2α,3β,5β)-3-(2,6-Diamino-9H-purin-9-yl)-5-(hydroxymethyl)-1,2-cyclopentanediol] | 0.32 (≈ 1.14 µM) | 4.6 | 0.3 (≈ 1.07 µM) | 197 (≈ 703 µM) | 2.2 | highly active | 3.8 | 2.3 (≈ 8.21 µM) | very high activity |
| Nc1nc2c(nnn2[C@@H]2C[C@H](CO)[C@@H](O)[C@H]2O)c(=O)[nH]1 (relative stereo) [Formula IV, Y = O, carbocyclic analog of 8-azaguanosine] |  |  |  | 58 | 2.2 |  |  |  |  |
| Nc1nc(Cl)c2nnn([C@@H]3C[C@H](CO)[C@@H](O)[C@H]3O)c2n1 (relative stereo) [Formula III, X = Cl, carbocyclic analog of 2-amino-6-chloro-8-azapurine ribofuranoside] | 81 | 0.9 |  |  |  |  | 0.6 |  |  |
| Nc1nc(Cl)c2ncn([C@@H]3C[C@H](CO)[C@@H](O)[C@H]3O)c2n1 (relative stereo) [Example 1, (1α,2α,3β,5β)-3-(2-Amino-6-chloro-9HH-purin-9-yl)-5-(hydroxymethyl)-1,2-cyclopentanediol] | 10 (≈ 33.4 µM) | 1.7 |  |  |  |  | 1.2 | 20 (≈ 66.7 µM) |  |
| Nc1nc(N)c2nnn([C@@H]3C[C@H](CO)[C@@H](O)[C@H]3O)c2n1 (relative stereo) [Example 6, (1α,2α,3β,5β)-3-(5,7-Diamino-3H-1,2,3-triazolo[4,5-d]pyrimidin-3-yl)-5-(hydroxymethyl)-1,2-cyclopentanediol] | 100 (≈ 356 µM) | 1.4 |  |  | 0.6 |  |  |  |  |
| CNc1nc(N)nc2c1ncn2[C@@H]1C[C@H](CO)[C@@H](O)[C@H]1O (relative stereo) [Example 3, (1α,2α,3β,5β)-3-[2-Amino-6-(methylamino)-9H-purin-9-yl]-5-(hydroxymethyl)-1,2-cyclopentanediol] | 320 (≈ 1090 µM) | 1.3 |  |  |  |  |  |  |  |
